# Measurements taken from patent US11331299B2, “Medicinal use of serrulatane diterpenes” (The University of Sydney, priority 2016, dated 2022).
# Read-outs that look alike come from different tables or passages of the source.
# Tested on: 280 human cancer cell lines
# Test: OncoPanel cell proliferation assay (10-day)
# Assay type: cell-based
# Conditions: Homo sapiens; for IC50: read-out: Cell Count IC50; for EC50: read-out: Cell Count EC50; for GI50: read-out: Cell Count GI50
# [1] = SJRH30, SJRH30, Soft Tissue - Sarcoma
# [2] = SJSA-1, SJSA1, Soft Tissue - Osteosarcoma
# [3] = SK-LMS-1, SK-LMS-1, Soft Tissue - Sarcoma
# [4] = SK-MEL3, SK-MEL-3, Skin (Melanoma)
# [5] = SK-MEL-1, SK-MEL-1, Skin (Melanoma)
# [6] = SK-MEL-28, SK-MEL-28, Skin (Melanoma)
# [7] = SK-OV-3, SKOV3, Female GU - Ovary
# [8] = SK-UT-1, SK-UT-1, Soft Tissue - Sarcoma
# [9] = SW579, SW579, Endocrine - Thyroid
# [10] = SW684, SW684, Soft Tissue - Sarcoma
compound,measurement,setting,value
"CC(C)=CCC[C@@H]1C(O)Oc2c(C)cc(O)c3c2[C@H]1CC[C@H]3C (some centres unmarked) [Compound 2, 5,18-epoxyserrulat-14-en-8,18-diol]",IC50,"SCaBER, Bladder",11.5 µM
same,EC50,"SH-4, Skin (Melanoma)",9.6 µM
same,GI50,"SH-4, Skin (Melanoma)",11.8 µM
same,IC50,"SH-4, Skin (Melanoma)",11.9 µM
same,EC50,"SHP77, SHP-77, Lung - SCLC",8.01 µM
same,GI50,"SHP77, SHP-77, Lung - SCLC",7.9 µM
same,IC50,"SHP77, SHP-77, Lung - SCLC",8.01 µM
same,EC50,[1],5.09 µM
same,GI50,[1],5.07 µM
same,IC50,[1],5.1 µM
same,EC50,[2],7.11 µM
same,GI50,[2],7.02 µM
same,IC50,[2],7.11 µM
same,EC50,"SK-BR-3, SK-BR-3, Breast",12.2 µM
same,GI50,"SK-BR-3, SK-BR-3, Breast",11.9 µM
same,IC50,"SK-BR-3, SK-BR-3, Breast",12.2 µM
same,EC50,[3],6.79 µM
same,GI50,[3],11.2 µM
same,IC50,[3],11.3 µM
same,EC50,[4],22 µM
same,GI50,[4],20.8 µM
same,EC50,[5],15.7 µM
same,GI50,[5],14.7 µM
same,IC50,[5],15.7 µM
same,EC50,[6],9.46 µM
same,GI50,[6],9.85 µM
same,IC50,[6],9.89 µM
same,EC50,"SK-MES-1, SKMES1, Lung - NSCLC",7.8 µM
same,GI50,"SK-MES-1, SKMES1, Lung - NSCLC",7.67 µM
same,IC50,"SK-MES-1, SKMES1, Lung - NSCLC",7.8 µM
same,EC50,"SK-N-AS, CNS - Neuroblastoma",6.23 µM
same,GI50,"SK-N-AS, CNS - Neuroblastoma",7.7 µM
same,IC50,"SK-N-AS, CNS - Neuroblastoma",7.92 µM
same,EC50,"SK-N-DZ, CNS - Neuroblastoma",> 30 µM
same,GI50,"SK-N-DZ, CNS - Neuroblastoma",> 30 µM
same,IC50,"SK-N-DZ, CNS - Neuroblastoma",> 30 µM
same,EC50,"SK-N-FI, CNS - Neuroblastoma",> 30 µM
same,GI50,"SK-N-FI, CNS - Neuroblastoma",> 30 µM
same,IC50,"SK-N-FI, CNS - Neuroblastoma",> 30 µM
same,EC50,[7],15.4 µM
same,GI50,[7],15.2 µM
same,IC50,[7],15.4 µM
same,EC50,"SK-PN-DW, Stomach",10.8 µM
same,GI50,"SK-PN-DW, Stomach",10.9 µM
same,IC50,"SK-PN-DW, Stomach",10.9 µM
same,EC50,[8],11.7 µM
same,GI50,[8],11.6 µM
same,IC50,[8],11.7 µM
same,EC50,"SKO-007, SKO-007, Myeloma",1.59 µM
same,GI50,"SKO-007, SKO-007, Myeloma",1.42 µM
same,IC50,"SKO-007, SKO-007, Myeloma",1.59 µM
same,EC50,"SNB-19, SNB-19, CNS - Glioma",17.3 µM
same,GI50,"SNB-19, SNB-19, CNS - Glioma",16.8 µM
same,IC50,"SNB-19, SNB-19, CNS - Glioma",17.3 µM
same,EC50,"SNU1, SNU-1, Stomach",8.51 µM
same,GI50,"SNU1, SNU-1, Stomach",9.41 µM
same,IC50,"SNU1, SNU-1, Stomach",9.42 µM
same,EC50,"SNU-5, SNU-5, Stomach",> 30 µM
same,GI50,"SNU-5, SNU-5, Stomach",> 30 µM
same,IC50,"SNU-5, SNU-5, Stomach",> 30 µM
same,EC50,"SNU-16, SNU-16, Stomach",9.96 µM
same,GI50,"SNU-16, SNU-16, Stomach",9.91 µM
same,IC50,"SNU-16, SNU-16, Stomach",9.96 µM
same,EC50,"SNU-423, SNU-423, Liver",5.29 µM
same,GI50,"SNU-423, SNU-423, Liver",5.26 µM
same,IC50,"SNU-423, SNU-423, Liver",5.31 µM
same,EC50,"SR, Lymphoma",10.7 µM
same,GI50,"SR, Lymphoma",10.7 µM
same,IC50,"SR, Lymphoma",10.7 µM
same,EC50,"ST486, ST486, Lymphoma",3.87 µM
same,GI50,"ST486, ST486, Lymphoma",3.86 µM
same,IC50,"ST486, ST486, Lymphoma",3.87 µM
same,EC50,"SU-DHL10, SU-DHL-10, Lymphoma",9.92 µM
same,GI50,"SU-DHL10, SU-DHL-10, Lymphoma",9.9 µM
same,IC50,"SU-DHL10, SU-DHL-10, Lymphoma",9.92 µM
same,EC50,"SU-DHL-4, SU-DHL-4, Lymphoma",4.2 µM
same,GI50,"SU-DHL-4, SU-DHL-4, Lymphoma",4.2 µM
same,IC50,"SU-DHL-4, SU-DHL-4, Lymphoma",4.2 µM
same,EC50,"SU-DHL-5, SU-DHL-5, Lymphoma",4.28 µM
same,GI50,"SU-DHL-5, SU-DHL-5, Lymphoma",4.27 µM
same,IC50,"SU-DHL-5, SU-DHL-5, Lymphoma",4.28 µM
same,EC50,"SU-DHL-8, SU-DHL-8, Lymphoma",7.4 µM
same,GI50,"SU-DHL-8, SU-DHL-8, Lymphoma",7.4 µM
same,IC50,"SU-DHL-8, SU-DHL-8, Lymphoma",7.4 µM
same,EC50,"SU.86.86, SU.86.86, Pancreas",13.1 µM
same,GI50,"SU.86.86, SU.86.86, Pancreas",> 30 µM
same,IC50,"SU.86.86, SU.86.86, Pancreas",> 30 µM
same,EC50,"SUP-T1, SUP-T1, Lymphoma",12.1 µM
same,GI50,"SUP-T1, SUP-T1, Lymphoma",12 µM
same,IC50,"SUP-T1, SUP-T1, Lymphoma",12.1 µM
same,EC50,"SW48, SW48, Colon",8.73 µM
same,GI50,"SW48, SW48, Colon",8.65 µM
same,IC50,"SW48, SW48, Colon",8.73 µM
same,EC50,[9],12.3 µM
same,GI50,[9],12.2 µM
same,IC50,[9],12.3 µM
same,EC50,[10],> 30 µM
same,GI50,[10],> 30 µM
same,IC50,[10],> 30 µM
same,EC50,"SW837, SW837, Colon",> 30 µM
same,GI50,"SW837, SW837, Colon",> 30 µM
